Experimental findings from paper PMC10443802, “Targeting a xenobiotic transporter to ameliorate vincristine-induced sensory neuropathy” (JCI Insight, 2023) are described below.

A short description of data set [1]: Plasma pharmacokinetics of nilotinib in mice. In kind it is in vivo, mouse. The note with it: OATP1B2(-/-) mice; for concentration at […]: DBA/1LacJ, mouse, plasma, oral, Plasma concentration of nilotinib. The protocol:
Pharmacokinetic studies. Pharmacokinetic studies were performed following an established protocol […]
0.5% hydroxypropyl-methylcellulose in water) was administered at a dose of 10 mg/kg . Serial whole blood samples (0.25, 0.5, 1, 2, 4, and 6 h) were collected from the submandibular vein for the initial three time - points, from the retro-orbital sinus vein for the subsequent two time-points, and cardiac puncture at the terminal time-point. Blood samples were centrifuged at 11,000 rpm for 5 min, and the plasma supernatants collected and stored at -80°C until analysis by a validated method based on reversed -phase liquid chromatography coupled to tandem mass-spectrometric detection (LC-MS/MS). Livers were collected from the same animals at endpoint and, to prevent continuing metabolic activity, tissues were snap frozen using liquid nitrogen. […]
mg/kg or 100 mg/kg, and after 1.5 h, plasma, liver, and whole DRG were collected. All plasma and tissue specimens were stored at -80°C until further processing. […]
were collected at the final time point. […]
specimens were stored at -80°C until further processing. All tissues were homogenized with 5-mm […]
Finally, the beads were removed, and
WinNonlin version 8.0 (Certara). […]
of the data from the concentration-time curves.
Determination of drug levels. […]
column was maintained at 50°C.

For a further data set, the system named is mice. The data set can be described thus: Open field locomotion, Basso Mouse Scale (BMS). Type of data set: in vivo. Details: key: BMS score: higher = better hindlimb locomotion; normal = 9. The protocol:
where the distance between two adjacent rungs is changeable (1-5 cm). The elevated ladder tests were initiated after mice had been acclimated to their surrounding for at least 4 h. The mice were placed at one end of the ladder and encouraged to move forward by a food reward at the other end of the ladder. If a […]
counted by an electrical counter. Experiments were repeated 3 times for each mouse, and an average of the three trials was used for analysis. Open-field locomotion was assessed with the Basso Mouse Scale (BMS) rating system (7). The open field was a round table that was 20.32 cm high and 1.524 m in diameter situated in a quiet testing room with normal lighting. The mice were acclimated to the testing table for 20 min daily for a week before drug administration. Two analysts blinded to the composition of the treatment groups simultaneously scored hindlimb locomotion for 4 min per mouse using a score sheet described previously (7). Parameters of interest included paw position (rotated in, rotated out, parallel placement), trunk stability, tail position, coordination, and plantar and dorsal support. Quantification was based on a scoring system where conditional variables are given a numerical representation in each category. A higher number correlates to better hindlimb locomotor function and ‘normal’ behavior scores a 9; conversely, a lower number represents abnormal locomotion. […]
by an automated ladder test. […]
using the mean Basso Mouse Scale for Locomotion (BMS) score. There were no pronounced differences […]
statistically significant.
(also on this page, place not known: Baseline Day 1 Day 2 Day 3 0 5 10 15 20 25 Number missed steps Wild-type Baseline Day 1 Day 2 Day 3 0 5 10 BMS Wild-type ns A B OATP1B2(-/-) OATP1B2(-/-) score of behavior. ns)

A further data set has as its target hOAT4 (Homo sapiens, UniProt Q9NSA0). Description: Vincristine uptake screen, HeLa cells overexpressing hOAT4. In kind it is in vitro ADME. The protocol: (§1) Relative uptake is expressed as percentage change compared with empty vector controls (n = 4–14 per group). […] Human OATP1B1 and OATP1B3 transporter–overexpressed cells were used as positive controls; empty vector controls were used as the negative control. […] Mechanical allodynia (C), thermal hyperalgesia (D), and sciatic nerve maximal action potential amplitudes (E) are expressed as percentage change relative to baseline values (n = 6–8 per group). Statistical analysis was performed using a 2-way ANOVA with Bonferroni’s post hoc test. **P < 0.01, ***P < 0.001, ****P < 0.0001, compared with baseline values. […] Data are shown as mean ± SEM. […]
(§2) transfected with transporters of interest, including hOAT1, hOAT3, hOAT4, hOATP1A2, hOATP3A1, hOATP4A1, hOATP5A1, hOATP1C1, hOATP1B1, hOATP1B3, hOATP2B1, hOCT1, hOCT2, hOCTN1, hOCTN2, hASBT, hNTCP, hNPT1, hMATE1, hOSTα/β, hPEPT1, hPEPT2, rOatp1a1, rOatp1a4, rOatp1a5, rOatp1b2, rNtcp, rAsbt, rOat1, and rOct1. Cells were transfected with expression plasmid or vector control lacking any insert using Lipofectin reagent (Invitrogen). […] The cellular radioactivity was quantified by liquid scintillation counting as described above. […]
(§3) Samples were analyzed using real-time quantitative PCR and Taqman Probes (Applied Biosystems). The relative gene expression was determined using the ΔΔCt method, and normalized to the mouse or human housekeeping gene, GAPDH. […]

Another data set deals with hOATP2B1 (Homo sapiens, UniProt O94956). Description: Vincristine uptake screen, HeLa cells overexpressing hOATP2B1. In kind it is in vitro ADME. The protocol: as §1, §2, §3
Sequence of hOATP2B1 (O94956 whole entry): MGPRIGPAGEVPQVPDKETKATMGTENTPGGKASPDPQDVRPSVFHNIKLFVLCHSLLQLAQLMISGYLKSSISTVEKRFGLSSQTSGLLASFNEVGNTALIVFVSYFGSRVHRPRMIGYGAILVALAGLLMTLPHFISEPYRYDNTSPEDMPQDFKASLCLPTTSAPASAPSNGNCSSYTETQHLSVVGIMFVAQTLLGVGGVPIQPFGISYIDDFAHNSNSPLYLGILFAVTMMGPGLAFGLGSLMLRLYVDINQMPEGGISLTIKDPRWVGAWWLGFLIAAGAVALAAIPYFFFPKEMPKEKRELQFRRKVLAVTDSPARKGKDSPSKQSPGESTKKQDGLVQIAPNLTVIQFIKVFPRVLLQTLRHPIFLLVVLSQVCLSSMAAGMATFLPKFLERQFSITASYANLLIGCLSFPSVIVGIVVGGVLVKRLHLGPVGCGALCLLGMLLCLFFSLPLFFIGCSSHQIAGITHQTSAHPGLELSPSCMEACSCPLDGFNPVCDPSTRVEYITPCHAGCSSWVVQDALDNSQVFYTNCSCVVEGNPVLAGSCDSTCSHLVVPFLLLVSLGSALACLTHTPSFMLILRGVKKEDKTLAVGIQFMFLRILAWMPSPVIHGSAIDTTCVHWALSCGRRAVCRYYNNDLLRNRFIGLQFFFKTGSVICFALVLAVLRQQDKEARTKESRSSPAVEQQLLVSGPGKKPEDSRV

Values joined by “and” are separate entries in the source; they are usually repeats but may differ in a detail not shown here. Identical values can stand only once.

Sequence of hOAT4 (Q9NSA0 whole entry): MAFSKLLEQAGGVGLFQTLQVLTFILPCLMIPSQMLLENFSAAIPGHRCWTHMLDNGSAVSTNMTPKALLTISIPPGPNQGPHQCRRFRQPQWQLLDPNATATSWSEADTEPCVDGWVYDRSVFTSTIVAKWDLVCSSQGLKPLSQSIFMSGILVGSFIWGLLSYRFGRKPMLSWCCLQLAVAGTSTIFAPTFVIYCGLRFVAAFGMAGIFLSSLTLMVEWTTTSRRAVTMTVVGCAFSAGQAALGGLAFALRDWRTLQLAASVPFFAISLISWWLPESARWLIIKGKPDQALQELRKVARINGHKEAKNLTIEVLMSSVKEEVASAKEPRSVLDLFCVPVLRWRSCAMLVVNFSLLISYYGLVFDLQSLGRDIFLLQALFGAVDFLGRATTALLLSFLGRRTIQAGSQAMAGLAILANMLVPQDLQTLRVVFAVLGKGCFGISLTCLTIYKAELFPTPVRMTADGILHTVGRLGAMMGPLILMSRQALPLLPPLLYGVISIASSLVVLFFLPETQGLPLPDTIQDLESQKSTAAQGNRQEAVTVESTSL

Regarding `Cc1cn(-c2cc(NC(=O)c3ccc(C)c(Nc4nccc(-c5cccnc5)n4)c3)cc(C(F)(F)F)c2)cn1` [Nilotinib, nilotinib], the concentration at […] in data set [1] (25 mg/kg) came to 8020 ng/mL; in data set [1] (100 mg/kg) it was 25800 ng/mL. Also, the “Plasma concentration of nilotinib” value is 9973.68 ng/mL and 13343.6 ng/mL in data set [1] (25mg/kg); 22063.7 ng/mL and 33922 ng/mL in data set [1] (100mg/kg).

Turning to `CC[C@]1(O)C[C@H]2CN(CCc3c([nH]c4ccccc34)[C@@](C(=O)OC)(c3cc4c(cc3OC)N(C=O)[C@H]3[C@@](O)(C(=O)OC)[C@H](OC(C)=O)[C@]5(CC)C=CCN6CC[C@]43[C@@H]65)C2)C1` [Vincristine, vincristine], the BMS score was 9 in the data set with mice (OATP1B2(-/-) mice, Day 1); 9 in the data set with mice (OATP1B2(-/-) mice, Day 2); 9 with mice (OATP1B2(-/-) mice, Day 3); 9 and 8 in the data set with mice (Wild-type mice, Day 1); 9 and 8 in the data set with mice (Wild-type mice, Day 2); 9 with mice (Wild-type mice, Day 3). Besides, the “Basso Mouse Scale for Locomotion (BMS) score, average” value in the data set on mice (wild-type and OATP1B2(-/-) mice, single i.p. dose 1 mg/kg, up to 3 days) was determined as 9. Besides, the “Vincristine uptake (% of vector control)” value at hOAT4 was 107.00 % of vector control and 81.00 % of vector control and 79.00 % of vector control and 90.00 % of vector control and 80.00 % of vector control and 99.00 % of vector control and 111.00 % of vector control and 113.00 % of vector control; at hOATP2B1, 113.00 % of vector control and 80.00 % of vector control and 88.00 % of vector control and 105.00 % of vector control and 83.00 % of vector control and 131.00 % of vector control and 125.00 % of vector control and 135.00 % of vector control.
